The values below come from article PMC5240995, “Lysine Decarboxylase with an Enhanced Affinity for Pyridoxal 5-Phosphate by Disulfide Bond-Mediated Spatial Reconstitution” (PLoS ONE, 2017).

Each structure is given as a SMILES string.

This experiment has as its target T1, SrLDC (Pseudoselenomonas ruminantium, UniProt O50657, A225C/T302C).
T1 construct: gene ldc
In words: isothermal titration calorimetry. The class given is binding. On the technique in general: ITC needs no label: the signal is the heat of the interaction.

T1 sequence (O50657 whole entry A225C/T302C): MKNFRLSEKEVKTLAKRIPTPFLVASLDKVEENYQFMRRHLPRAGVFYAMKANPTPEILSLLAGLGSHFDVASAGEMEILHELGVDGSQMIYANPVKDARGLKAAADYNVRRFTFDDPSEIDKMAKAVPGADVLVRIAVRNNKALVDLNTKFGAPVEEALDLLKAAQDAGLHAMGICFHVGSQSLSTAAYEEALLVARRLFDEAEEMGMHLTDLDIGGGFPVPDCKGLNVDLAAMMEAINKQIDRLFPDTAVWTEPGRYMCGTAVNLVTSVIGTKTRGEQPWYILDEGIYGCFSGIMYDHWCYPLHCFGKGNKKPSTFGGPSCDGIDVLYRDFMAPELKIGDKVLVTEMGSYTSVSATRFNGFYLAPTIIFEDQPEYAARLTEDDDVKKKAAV

`Cc1ncc(COP(=O)(O)O)c(C=O)c1O` [pyridoxal 5-phosphate] displayed a Kd of 21 µM.

As usually defined, the Kd is the concentration at which binding is half-saturated.
